Test results published in patent publication US20230148450A9, “BICYCLIC HETEROARYL COMPOUNDS AND USES THEREOF” (Revolution Medicines, Inc., priority 2019, published 2023).

Assays:
[1] = molecular target: T1, SOS1 catalytic domain (residues 564-1049) (Homo sapiens, UniProt Q07889); assay: Binding affinity to SOS1 using Surface Plasmon Resonance (SPR); conditions: avi-tagged SOS1 catalytic domain immobilized on sensor chip; read-out: SOS1 SPR Equilibrium Kd
T1 construct: SOS1 catalytic domain (residues 564-1049) immobilized on a sensor chip
T1 sequence (Q07889 564-1049): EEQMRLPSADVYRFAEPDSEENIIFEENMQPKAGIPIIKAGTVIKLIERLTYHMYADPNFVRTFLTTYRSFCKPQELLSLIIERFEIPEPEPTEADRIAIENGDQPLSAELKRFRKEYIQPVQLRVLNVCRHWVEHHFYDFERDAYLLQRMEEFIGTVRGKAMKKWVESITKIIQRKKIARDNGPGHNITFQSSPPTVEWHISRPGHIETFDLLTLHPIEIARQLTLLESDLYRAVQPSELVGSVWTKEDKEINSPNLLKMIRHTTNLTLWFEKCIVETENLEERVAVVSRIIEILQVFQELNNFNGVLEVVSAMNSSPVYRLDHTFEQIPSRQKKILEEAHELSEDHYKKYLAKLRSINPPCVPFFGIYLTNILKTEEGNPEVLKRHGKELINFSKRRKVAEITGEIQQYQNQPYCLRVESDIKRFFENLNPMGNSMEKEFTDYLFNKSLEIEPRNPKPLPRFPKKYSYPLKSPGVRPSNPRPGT
Source text: Potency Assay: Measurement of the Binding Affinity of Compounds of the Invention to SOS! using Surface Plasmon Resonance (SPR)
The purpose of the SPR assay was to measure the direct binding of compounds to SOS1 catalytic domain (residues 564-1049) immobilized on a sensor chip. Data was reported as equilibrium dissociation constant (Kd) values.
Using a GE Biacore 8K SPR instrument, avi-tagged SOS1 catalytic domain protein was immobilized to a level of approximately 6000 response units (RU) on a streptavidin-coated SPR sensor chip in assay buffer containing 0.01 M HEPES, 0.15 M NaCl and 0.05% v/v Surfactant P20. In assay buffer containing 2% DMSO, concentration series of test compounds were generated spanning 5 μM to 4.9 nM over ten 2-fold dilutions. For each test compound, a separate 0 μM sample was generated for use during subsequent double reference subtraction. Serially for each test compound, individual dilution samples were flowed over the immobilized SOS1 protein at a flow rate of 50 μL/minute to monitor the association with SOS1. Dissociation of bound test compound from the SOS1 protein was immediately monitored by flowing assay buffer over the sensor surface and monitoring the decrease in binding signal back to the baseline level seen in the absence of compound. This was repeated for all compound dilutions in each series. The binding level response for each test compound concentration was noted immediately prior to the end of the association phase, and a secondary plot generated showing binding response level versus test compound concentration generated for each compound dilution series.

[2] = molecular target: T2, SOS1 nucleotide exchange of KRAS (catalytic domain of SOS1, residues 564-1049; wild-type KRAS) (Homo sapiens, UniProt Q07889); assay: Mode of Action Assay: Inhibition of SOS1 Nucleotide Exchange Activity (TR-FRET); assay type: biochemical; conditions: TR-FRET signal
T2 construct: tagless catalytic domain of SOS1 (residues 564-1049)
T2 sequence (Q07889 564-1049): T1 sequence (Q07889 564-1049)
Procedure: The purpose of this assay was to characterize the inhibitory activity of compounds on SOS1 nucleotide exchange of KRAS. Data was reported as IC50 values based on the TR-FRET signal.
Note—the following protocol describes a procedure for monitoring the inhibition of SOS1 nucleotide exchange activity of wild-type KRAS in response to a compound of the invention. Other KRAS mutants and RAS isoforms maybe employed.
In assay buffer containing 20 mM HEPES, pH 7.5, 150 mM NaCl, 5 mM MgCl2, 0.05% Tween-20, 0.1% BSA, 1 mM DTT, concentration series of test compounds were generated spanning 100 μM to 1.7 nM over eleven 3-fold serial dilutions in a 384-well assay plate at a volume of 20 μL. The purified tagless catalytic domain of SOS1 (residues 564-1049) was first diluted in assay buffer at a concentration of 100 nM, and then 20 μL of the SOS1 containing solution was directly dispensed into compound plates. The SOS1/compound mixture was incubated at room temperature with constant mixing on an orbital shaker for 20 minutes to allow the reaction to reach equilibrium. A KRAS mixture was prepared by diluting 66.7 nM avi-tagged KRAS (residue 1-169), 3.33 nM Streptavidin-Tb and 333 nM EDA-GTP-DY-647P1 in assay buffer. This mixture was prepared immediately before addition to the SOS1/compound mixture to prevent intrinsic nucleotide exchange. Then 5 μL of the pre-incubated SOS1/compound mixture and 7.5 μL of the KRAS mixture were added sequentially in a 384-well low volume black round bottom plate and incubated at room temperature with constant shaking for 30 minutes. Time-resolved fluorescence was measured on a PerkinElmer Envision plate reader. DMSO and 10 μM of compound (i) were used as negative and positive controls, respectively.
Three replicates were performed for each compound. Data were normalized by the following: (Positive control—Sample signal)/(Positive control—negative control)*100. The data were fit using a four-parameter logistic fit.

[3] = tested on: cellular pERK in PC-9 cells (EGFR Ex19Del); assay: Potency Assay: pERK; assay type: cell-based; conditions: Homo sapiens; PC-9 cells (EGFR Ex19Del), 1 hour incubation, AlphaLISA p-ERK1/2; read-out: SOS1 pERK IC50
Source text: The purpose of this assay is to measure the ability of test compounds to inhibit SOS1 function in cells. SOS1 activates RAS proteins by catalyzing the conversion of […] to […] in response to receptor tyrosine kinase activation. Activation of RAS induces a sequence of cellular signaling events that results in increased phosphorylation of ERK at […] (pERK). The procedure described below measures the level of cellular pERK in response to test compounds in PC-9 cells (EGFR Ex[…]). PC-9 cells were grown and maintained using media and procedures recommended by the ATCC. On the day prior to compound addition, cells were plated in 384-well cell culture plates (40 μL/well) and grown overnight in a 37° C., 5% CO2 incubator. Test compounds were prepared in 10, 3-fold dilutions in DMSO, with a top concentration of 10 mM. On the day of the assay, 40 nL of test compound was added to each well of cell culture plate using an Echo550 liquid handler (LabCyte). Concentrations of test compound were tested in duplicate with highest test concentration being 10 μM. After compound addition, cells were incubated for 1 hour at 37° C., 5% CO2. Following incubation, culture medium was removed and cells were washed once with phosphate buffered saline. Cellular pERK level was determined using the AlphaLISA SureFire Ultra p-ERK1/2 Assay Kit (PerkinElmer). Cells were lysed in 25 μL lysis buffer, with shaking at 600 RPM at room temperature for 15 minutes. Lysate (10 μL) was transferred to a 384-well Opti-plate (PerkinElmer) and 5 μL acceptor mix was added. The plate was centrifuged at 1000 RPM for 1 minute, and incubated in the dark for 2 hours. Following this incubation, 5 μL of donor mix was added, the plate was sealed and centrifuged at 1000 RPM for 1 minute, and the mixture was incubated for 2 hours at room temperature. Signal was read on an Envision plate reader (PerkinElmer) using standard AlphaLISA settings. Analysis of raw data was carried out in Excel (Microsoft) and Prism (GraphPad). Signal was plotted vs. the decadal logarithm of compound concentration, and IC50 was determined by fitting a 4-parameter sigmoidal concentration response model.

| Compound | Kd [1] [nM] | IC50 [2] [nM] | IC50 [3] [nM] |
| --- | --- | --- | --- |
| C[C@@H](Nc1ncnc2cn(CC3CCOC3)cc12)c1cc(N)cc(C(F)(F)F)c1 (stereo partly drawn) [Example 32, N-[(1R)-1-[3-amino-5-(trifluoromethyl)phenyl]ethyl]-6-(tetrahydrofuran-3-ylmethyl)pyrrolo[3,4-d]pyrimidin-4-amine] | ≤ 400 | – | – |
| Cc1nc(N[C@H](C)c2cc(N)cc(C(F)(F)F)c2)c2cc(CN3CCOCC3)cn2n1 [Example 34, N-[(1R)-1-[3-amino-5-(trifluoromethyl)phenyl]ethyl]-2-methyl-6-(morpholinomethyl)pyrrolo[2,1-f][1,2,4]triazin-4-amine] | > 400 | > 1000 | – |
| C[C@@H](Nc1ncnc2c1cc(C1CCNCC1)n2C)c1cc(N)cc(C(F)(F)F)c1 [Example 38, N-[(1R)-1-[3-amino-5-(trifluoromethyl)phenyl]ethyl]-7-methyl-6-(4-piperidyl)pyrrolo[2,3-d]pyrimidin-4-amine] | – | – | > 1000 |
| CC(=O)N1CCN(c2cc3c(N[C@H](C)c4cc(N)cc(C(F)(F)F)c4)ncnn3c2)CC1 [Example 43, 1-[4-[4-[[(1R)-1-[3-amino-5-(trifluoromethyl)phenyl]ethyl]amino]pyrrolo[2,1-f][1,2,4]triazin-6-yl]piperazin-1-yl]ethanone] | > 400 | > 1000 | – |
| COc1cc2c(N[C@H](C)c3cc(N)cc(C(F)(F)F)c3)ncnn2c1 [Example 44, N-[(1R)-1-[3-amino-5-(trifluoromethyl)phenyl]ethyl]-6-methoxy-pyrrolo[2,1-f][1,2,4]triazin-4-amine] | > 400 | > 1000 | – |
| CC(=O)N1CCN(c2cc3c(N[C@H](C)c4cccc(C(F)(F)F)c4)ncnn3c2)CC1 [Example 45, 1-[4-[4-[[(1R)-1-[3-(trifluoromethyl)phenyl]ethyl]amino]pyrrolo[2,1-f][1,2,4]triazin-6-yl]piperazin-1-yl]ethenone] | ≤ 400 | > 1000 | – |
| Cc1nc(N[C@H](C)c2cc(N)cc(C(F)(F)F)c2)c2cc(C3=CCNCC3)sc2n1 [Example 46, N-[(1R)-1-[3-amino-5-(trifluoromethyl)phenyl]ethyl]-2-methyl-6-(1,2,3,6-tetrahydropyridin-4-yl)thieno[2,3-d]pyrimidin-4-amine] | – | > 1000 | – |
| C[C@@H](Nc1ccnc2cc(C3=CCNCC3)nn12)c1cc(N)cc(C(F)(F)F)c1 [Example 52, N-[(1R)-1-[3-amino-5-(trifluoromethyl)phenyl]ethyl]-2-(1,2,3,6-tetrahydropyridin-4-yl)pyrazolo[1,5-a]pyrimidin-7-amine] | ≤ 400 | > 1000 | – |
| C[C@@H](Nc1cc(C(F)(F)F)cn2nc(C3=CCNCC3)nc12)c1cc(N)cc(C(F)(F)F)c1 [Example 54, N-[(1R)-1-[3-amino-5-(trifluoromethyl)phenyl]ethyl]-2-(1,2,3,6-tetrahydropyridin-4-yl)-6-(trifluoromethyl)-[1,2,4]triazolo[1,5-a]pyridin-8-amine] | – | > 1000 | – |
| C[C@@H](Nc1cccc2nc(C3=CCNCC3)nn12)c1cc(N)cc(C(F)(F)F)c1 [Example 55, N-[(1R)-1-[3-amino-5-(trifluoromethyl)phenyl]ethyl]-2-(1,2,3,6-tetrahydropyridin-4-yl)-[1,2,4]triazolo[1,5-a]pyridin-5-amine] | – | > 1000 | – |
| Cc1cn2nc(C(=O)N3CCOCC3)cc2c(N[C@H](C)c2cc(N)cc(C(F)(F)F)c2)n1 [Example 58., 60.] | > 400 | > 1000 | – |
| Cc1cn2nc(C(=O)N3CCN(C)CC3)cc2c(N[C@H](C)c2cc(N)cc(C(F)(F)F)c2)n1 [Example 59] | ≤ 400 | > 1000 | – |
| Cc1nc(N[C@H](C)c2cc(N)cc(C(F)(F)F)c2)c2cc(-c3ccnc(N4CCOCC4)c3)cn2n1 [Example 63, N-[(1R)-1-[3-amino-5-(trifluoromethyl)phenyl]ethyl]-2-methyl-6-[2-(morpholin-4-yl)pyridin-4-yl]pyrrolo[2,1-f][1,2,4]triazin-4-amine] | ≤ 400 | > 1000 | – |
| COc1ncccc1-c1cc2c(N[C@H](C)c3cc(N)cc(C(F)(F)F)c3)nc(C)nn2c1 [Example 64, N-[(1R)-1-[3-amino-5-(trifluoromethyl)phenyl]ethyl]-6-(2-methoxypyridin-3-yl)-2-methylpyrrolo[2,1-f][1,2,4]triazin-4-amine] | > 400 | > 1000 | – |
| C[C@@H](Nc1ncnc2c1cc(C1=CCNCC1)n2C)c1cc(N)cc(C(F)(F)F)c1 [Example 67] | ≤ 400 | – | – |
| Cc1cn2nc(C(=O)N3CCNCC(F)(F)C3)cc2c(N[C@H](C)c2cc(N)cc(C(F)(F)F)c2)n1 [Example 77] | – | > 1000 | – |
| Cc1cn2nc(C(=O)N3CC(N4CCC4)C3)cc2c(N[C@H](C)c2cc(N)cc(C(F)(F)F)c2)n1 [Example 79] | – | > 1000 | – |
| Cc1cn2nc(C(=O)N3CC4CC(C3)N4C)cc2c(N[C@H](C)c2cc(N)cc(C(F)(F)F)c2)n1 [Example 80] | – | > 1000 | – |
| C[C@@H](Nc1nc(Cl)cc2nc(C(=O)N3CCOCC3)cn12)c1cccc(C(F)(F)CO)c1 [Example 86] | ≤ 400 | < 1000 | – |
| C[C@@H](Nc1nccc2nc(C(=O)N3CC4(CN(CCF)C4)C3)cn12)c1cccc(C(F)F)c1F [Example 92] | ≤ 400 | < 1000 | – |
| C[C@@H](Nc1nccc2nc(C(=O)N3CC4(CN(CC(F)F)C4)C3)cn12)c1cccc(C(F)F)c1F [Example 93] | ≤ 400 | < 1000 | – |
